One series concerns Maiden Merino ewes. The conditions noted are these: in vivo.
Another series deals with ewes. The conditions noted are these: in vivo; cited from earlier work.

Consider `COc1ccc2[nH]cc(CCNC(C)=O)c2c1` [Melatonin, N-acetyl 5-methoxy tryptamine], for which the superovulation entry with Maiden Merino ewes is reported as “does not induce superovulation”. Further, in the series on ewes, the basal prolactin levels result is listed as “depressed” and the breeding season entry is reported as “advanced”.

Values taken from patent US4882137A, “Coated veterinary implants” (priority 1986, dated 1989).
